Seven compounds from patent US4254128A, “2-Adamantyl hydrazines and biocidal compositions thereof” (Teva Pharmaceutical Industries Ltd., priority 1977, dated 1981) can be followed below.

One series deals with albino rats. Put plainly: Antiparkinson activity (catalepsy produced by haloperidol). The series is classed as in vivo, Male Charles River albino rats. Particulars: for anticataleptic effect: 80 mg/kg i.p.; for antiparkinson activity: summary in words. The protocol:
Male Charles River albino rats, weighing 200-250 g, were used. Catalepsy was produced by haloperidol, 5 mg/kg i.p. The animals were placed with their front paws on a horizontal bar, about 10 cm above the ground, and animals were considered cataleptic if not changing posture for at least 30 sec. Cataleptic animals were injected i.p. with one of the drugs at a dose of 40-80 mg/kg. Catalepsy was estimated again at the intervals indicated.

For a further series, the system named is L. tropica promastigotes. Description: Anti leishmania test, promastigotes in vitro. The series is classed as cell-based. The note with it: 27° C. As for the experimental part:
(§1) b. promastigotes in Mc Coy's medium in vitro at 27° C.
+++=No viable parasites after 24 hours
++=No viable parasites after 48 hours
+=No viable parasites after 72 hours
±=No viable parasites after 96 hours p2 -=viable parasites after 120 hours.

Series [1] in a line: Toxic limit in the HSV replication test. Particulars: monkey, bsc-1 cells.
The test system of another series is HSV-1 (Herpes Simplex). Description: Inhibition test on HSV replication. Format: cell-based. The note with it: for inhibition at 100 µg/mL: 100 μg/ml; for inhibition at 200 µg/mL: 200 μg/ml. An excerpt:
BSC-1 (Green monkey kidney)
**% Inhibition of control infected for some time with same virus PFV with […]

In the next series the test system is Leishmania. Description: Anti leishmania tests, summary. Format: cell-based, L. tropica. Particulars: summary in words. The protocol: (§2) a. amastigotes in peritoneal exudate cells in Mc Coy's medium in vitro at 37° C.
as §1

The test system of another series is L. tropica amastigotes. Description: Anti leishmania test, amastigotes in peritoneal exudate cells in vitro. Format: cell-based. The note with it: 37° C. The protocol:
as §2
+++=clearance of all parasites in 24 hours
++=clearance of all parasites in 48 hours
+=clearance of all parasites in 72 hours
±=Partial clearance of parasites in 72 hours or more
-=No activity against parasites.

Series [2] concerns 4 mycoplasma (M. gallisepticum, M. capricolum, M. hominis, A. laidlawii). Description: organism not typed. The series is classed as cell-based. The note with it: read-out: 50% inhibition of growth.
The subject of series [3] is albino mice. Put plainly: Stereotyped behaviour in mice. The series is classed as in vivo, Male ICR albino mice. More on the design: scale not given here. Particulars: 50 mg/kg i.p.
The test system of series [4] is Leptospira canicola Kipod 146. Description: Anti leptospiral activity (minimal inhibition concentration). The series is classed as cell-based. The note with it: for MIC: Leptospira interrogans, KIPOD146, 240 h. The protocol: The tests were carried out under the following conditions:
Leptospira: Leptospira canicola Kipod 146
Inoculum: 1-10^5 cells/ml
Incubation time: 10 days, 28° C.
Evaluation: Direct count in dark field microscopy after 4,7 and 10 days.
2 Minimal+0.5% albumin (Pentex)
3 Korthof rich medium with 8% serum.
4 Korthof rich medium with 2% serum.

Series [5] concerns albino mice. Description: Stereotyped behaviour in mice. The series is classed as in vivo, Male ICR albino mice. More on the design: stereotyped behaviour score / Total Score / Mean Score: scale not given here. As for the experimental part:
Male ICR albino mice weighing 25-30 g were put in cages with a metal grid floor, 4 in each cage. Drugs were injected intraperitoneally and stereotyped behaviour (sniffing, biting, repetitive head movement) was evaluated every 30 min.

In a further series the test system is Trypanosoma. Put plainly: Anti trypanosoma test in vitro. Format: cell-based. As for the experimental part: Trypanosoma in RPM1 medium in vitro at 37° C. Scoring as in b.
[6] abbreviates: Human alphaherpesvirus 1, 50 μg/ml, BSC-1 cells, 10 PFU/cell, read-out: % Inhibition.
Where [7] appears, read: Human alphaherpesvirus 1, BSC-1 cells, 10 PFU/cell.

Structures can show the parent of a compound that is named as a salt. Where two headings read alike, the source gives them in different places.

Consider `O=C(O)CNNC1C2CC3CC(C2)CC1C3` (stereo not shown) [Example 36, [2-(2'-adamantyl)hydrazino]acetic acid hydrochloride], for which the anticataleptic effect is 2/4 with albino rats (rat 1); 1/4 with albino rats (rat 2); 3/4 with albino rats (rat 3); 2/4 in the series with albino rats (rat 4); 0/4 with albino rats (rat 5). Moreover, the antiparkinson activity result with albino rats is recorded as “active”. Besides, in the series with L. tropica promastigotes (100 μg), the “Leishmania promastigote activity score” value is given as “++ (No viable parasites after 48 hours)”. Besides, in series [1], the MNTC is 200 µg/mL. Further, the inhibition at 50 µg/mL in the series with HSV-1 (Herpes Simplex) (setting [6]) is 0%. In the series with HSV-1 (Herpes Simplex) (setting [7]), this compound registered an inhibition at 100 µg/mL of 0%. The compound further displayed an inhibition at 200 µg/mL with HSV-1 (Herpes Simplex) (setting [7]) of 98%. In addition, the “activity against Leishmania” value in the series on Leishmania is on record as “active”. In the series on L. tropica amastigotes (100 μg), the “Leishmania amastigote activity score” value is reported as “++ (clearance of all parasites in 48 hours)”.

With `c1ccc(CN2CCN(NC3C4CC5CC(C4)CC3C5)CC2)cc1` (stereo not shown) [Example 16, 1-(2'-Adamantylamino)-4-benzylpiperazine dihydrochloridemonohydrate], the “Leishmania promastigote activity score” value with L. tropica promastigotes (10 μg) and with L. tropica promastigotes (100 μg) was “+++ (No viable parasites after 24 hours)” in each case. Besides, the IC50 in series [2] was in the range of 5 to 30 µg/mL. For the same compound, in the series with Leishmania, the “activity against Leishmania” value was “active”.

`NC12CC3CC(CC(C3)C1)C2` [Amant., Amantadine, reference compound] had an MNTC in series [1] of 50 µg/mL. For the same compound, the inhibition at 50 µg/mL in the series with HSV-1 (Herpes Simplex) (Human alphaherpesvirus 1, BSC-1) stood at 93%.

With `CN(N)C1C2CC3CC(C2)CC1C3` (stereo not shown) [Example 27, 1-(2'-Adamantyl)-1-methylhydrazine hydrochloride], the anticataleptic effect was 3/4 in the series with albino rats (rat 1); 1/4 with albino rats (rat 2); 2/4 with albino rats (rat 3); 3/4 in the series on albino rats (rat 4); 4/4 in the series on albino rats (rat 5). Further, in the series with albino rats, the antiparkinson activity result is “active”. For the same compound, the “Leishmania promastigote activity score” value with L. tropica promastigotes (100 μg) was “+++ (No viable parasites after 24 hours)”. Also, the stereotyped behaviour score in the series on albino mice [3] (45 min, mouse 1) was 0; with albino mice [3] (45 min, mouse 2) it was 1; in the series with albino mice [3] (135 min, mouse 3), 0; in the series with albino mice [3] (135 min, mouse 4), 0; in the series on albino mice [5] (50 mg/kg i.p., 0 min, mouse 1) it was 0; in the series with albino mice [5] (50 mg/kg i.p., 0 min, mouse 2), 0. The stereotyped behaviour score with albino mice [5] (50 mg/kg i.p., 0 min, mouse 3) turned out to be 0; with albino mice [5] (50 mg/kg i.p., 0 min, mouse 4) it was 0; in the series with albino mice [5] (50 mg/kg i.p., 30 min, mouse 1) it was 0; in the series on albino mice [5] (50 mg/kg i.p., 30 min, mouse 2), 0; in the series on albino mice [5] (50 mg/kg i.p., 30 min, mouse 3), 1; with albino mice [5] (50 mg/kg i.p., 30 min, mouse 4), 0. For the same compound, the stereotyped behaviour score was found to be 1 in the series on albino mice [5] (50 mg/kg i.p., 45 min, mouse 3); 1 with albino mice [5] (50 mg/kg i.p., 45 min, mouse 4); 2 in the series with albino mice [5] (50 mg/kg i.p., 60 min, mouse 1); 2 with albino mice [5] (50 mg/kg i.p., 60 min, mouse 2); 2 in the series on albino mice [5] (50 mg/kg i.p., 60 min, mouse 3); 2 in the series on albino mice [5] (50 mg/kg i.p., 60 min, mouse 4). Also, the stereotyped behaviour score in the series on albino mice [5] (50 mg/kg i.p., 90 min, mouse 1) worked out at 2; in the series with albino mice [5] (50 mg/kg i.p., 90 min, mouse 2) it was 2; with albino mice [5] (50 mg/kg i.p., 90 min, mouse 3), 2; in the series on albino mice [5] (50 mg/kg i.p., 90 min, mouse 4) it was 2; in the series with albino mice [5] (50 mg/kg i.p., 120 min, mouse 1), 1; with albino mice [5] (50 mg/kg i.p., 120 min, mouse 2), 1. Besides, the stereotyped behaviour score stood at 0 in the series on albino mice [5] (50 mg/kg i.p., 120 min, mouse 3); 0 with albino mice [5] (50 mg/kg i.p., 120 min, mouse 4); 1 in the series on albino mice [5] (50 mg/kg i.p., 135 min, mouse 1); 1 in the series with albino mice [5] (50 mg/kg i.p., 135 min, mouse 2); 1 in the series on albino mice [5] (50 mg/kg i.p., 150 min, mouse 1); 1 in the series on albino mice [5] (50 mg/kg i.p., 150 min, mouse 2). The stereotyped behaviour score in the series on albino mice [5] (50 mg/kg i.p., 150 min, mouse 3) was determined as 0; with albino mice [5] (50 mg/kg i.p., 150 min, mouse 4) it was 0; in the series on albino mice [5] (50 mg/kg i.p., 180 min, mouse 1) it was 0; in the series on albino mice [5] (50 mg/kg i.p., 180 min, mouse 2) it was 0; in the series on albino mice [5] (50 mg/kg i.p., 180 min, mouse 3) it was 0; in the series with albino mice [5] (50 mg/kg i.p., 180 min, mouse 4), 0. The stereotyped behaviour score in the series with albino mice [5] (50 mg/kg i.p., 210 min, mouse 1) was determined as 0; in the series on albino mice [5] (50 mg/kg i.p., 210 min, mouse 2), 1; in the series on albino mice [5] (50 mg/kg i.p., 210 min, mouse 3), 0; in the series on albino mice [5] (50 mg/kg i.p., 210 min, mouse 4), 0; in the series on albino mice [5] (50 mg/kg i.p., 240 min, mouse 1), 0; in the series on albino mice [5] (50 mg/kg i.p., 240 min, mouse 2) it was 0. The stereotyped behaviour score in the series with albino mice [5] (50 mg/kg i.p., 240 min, mouse 3) came to 0; with albino mice [5] (50 mg/kg i.p., 240 min, mouse 4), 0. For the same compound, the MNTC in series [1] amounted to 100 µg/mL. Moreover, at 25 µg/mL the inhibition in the series with HSV-1 (Herpes Simplex) (Human alphaherpesvirus 1, 25 μg/ml, BSC-1 cells, 10 PFU/cell) was 46%. In the series on HSV-1 (Herpes Simplex) (setting [6]), the inhibition at 50 µg/mL is 81%. The inhibition at 100 µg/mL in the series on HSV-1 (Herpes Simplex) (setting [7]) is 100%. In the series on Leishmania, the “activity against Leishmania” value is “active”. For the same compound, the “Leishmania amastigote activity score” value in the series with L. tropica amastigotes (10 μg) is given as “± (Partial clearance of parasites in 72 hours or more)”; in the series on L. tropica amastigotes (100 μg) it was “++ (clearance of all parasites in 48 hours)”. Besides, the values for the MIC in series [4] (Korthof + 8% serum), in [4] (minimal + Pentex (0.5% albumin)) and in [4] (minimal medium) were 50 µg/mL, 6.25 µg/mL and 3.12 µg/mL, respectively. In addition, the anti leptospiral activity result in [4] (summary in words) is reported as “active”. In addition, the “Mean Score” value in the series with albino mice [5] (50 mg/kg i.p., mean of 4 mice) was 6.5. The “Total Score” value with albino mice [5] (50 mg/kg i.p., mouse 1) was determined as 7; with albino mice [5] (50 mg/kg i.p., mouse 2) it was 9; in the series on albino mice [5] (50 mg/kg i.p., mouse 3), 6; with albino mice [5] (50 mg/kg i.p., mouse 4) it was 5. The stereotyped behaviour activity entry with albino mice [5] (summary in words) was “active”.

In the case of `c1ccc(CCNNC2C3CC4CC(C3)CC2C4)cc1` (stereo not shown) [Example 2, 1-(2'-Adamantyl)-2-phenethylhydrazine hydrochloride], in series [2], the IC50 was in the range of 5 to 30 µg/mL.

Turning to `CNN(C)C1C2CC3CC(C2)CC1C3` (stereo not shown) [Example 49, 1-(2'-Adamantyl)-1,2-dimethylhydrazine hydrochloride], the MNTC in series [1] was found to be 100 µg/mL. For the same compound, in the series with HSV-1 (Herpes Simplex) (setting [6]), the inhibition at 50 µg/mL worked out at 60%. Also, in the series with HSV-1 (Herpes Simplex) (setting [7]), the inhibition at 100 µg/mL came out at 92% and the inhibition at 200 µg/mL was determined as 99.9%. The “Trypanosoma in vitro activity score” value with Trypanosoma (100 μg, 37° C., scoring as in b (promastigotes)) is given as “++ (No viable parasites after 48 hours)”. Moreover, in the series with Trypanosoma (summary in words), the “activity against Trypanosoma” value is on record as “active”.

On to `CNNC1C2CC3CC(C2)CC1C3` (stereo not shown) [Example 25, 1-(2'-Adamantyl)-2-methylhydrazine hydrochloride], for which the “Leishmania promastigote activity score” value in the series with L. tropica promastigotes (100 μg) is given as “+++ (No viable parasites after 24 hours)”. In addition, in the series on Leishmania, the “activity against Leishmania” value is reported as “active”. Besides, in the series with L. tropica amastigotes (100 μg), the “Leishmania amastigote activity score” value was “++ (clearance of all parasites in 48 hours)”.
